# From patent publication US20260374754A1, “N-((ISOQUINOLIN-6-YL)METHYL)-1H-PYRAZOLE-4-CARBOXAMIDE DERIVATIVES AS PLASMA KALLIKREIN INHIBITORS FOR THE TREATMENT OF HEREDITARY ANGIODEMA” (Takeda Pharmaceutical Company Limited, priority 2022, published 2026)
# Target: human activated kallikrein enzyme (Homo sapiens, UniProt P03952)
# Assay: Inhibition of human activated plasma kallikrein, fluorogenic PFR-AMC substrate, 500 pM enzyme format
# Type: biochemical
# Details: 500 pM activated kallikrein; 300 μM PFR-AMC; 30 min preincubation; 10 min room temperature; pH 7.5; read-out: Primary Dose Response Assay: Average EC50
# Procedure, shortened: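 500 pM activated kallikrein preincubated 30 min at room temperature with inhibitors in pH 7.5 Tris/EDTA/NaCl buffer with PEG-400 and Triton X-100. Reaction started with 300 μM PFR-AMC, run 10 min at room temperature; AMC fluorescence read at ex 380/em 460 nm.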
# Sequence of human activated kallikrein enzyme (P03952 391-638 limits assumed): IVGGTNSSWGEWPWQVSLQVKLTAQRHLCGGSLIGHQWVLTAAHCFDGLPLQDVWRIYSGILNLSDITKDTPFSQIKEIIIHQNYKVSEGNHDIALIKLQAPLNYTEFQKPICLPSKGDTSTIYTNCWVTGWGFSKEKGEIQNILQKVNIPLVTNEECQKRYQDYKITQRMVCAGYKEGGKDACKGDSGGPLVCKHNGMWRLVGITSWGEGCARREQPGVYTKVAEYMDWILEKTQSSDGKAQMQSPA
# Sequence of human activated kallikrein enzyme (P03952 20-390 partner limits assumed): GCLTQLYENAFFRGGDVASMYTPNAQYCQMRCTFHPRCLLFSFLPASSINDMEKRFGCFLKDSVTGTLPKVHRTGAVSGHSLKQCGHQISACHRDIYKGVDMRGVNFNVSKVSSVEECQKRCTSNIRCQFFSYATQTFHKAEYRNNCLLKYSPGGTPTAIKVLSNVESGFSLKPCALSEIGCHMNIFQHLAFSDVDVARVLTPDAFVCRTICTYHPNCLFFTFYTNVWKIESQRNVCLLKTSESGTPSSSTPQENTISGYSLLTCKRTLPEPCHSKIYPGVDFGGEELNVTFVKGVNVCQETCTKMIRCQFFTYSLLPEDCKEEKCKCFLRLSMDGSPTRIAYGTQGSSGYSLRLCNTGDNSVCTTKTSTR
row,SMILES,EC50 [µM]
1,"Cc1cc2c(N)nccc2c(C)c1CNC(=O)c1cnn(Cc2ccc(F)cc2)c1 [Example 39, N-((1-amino-5,7-dimethylisoquinolin-6-yl)methyl)-1-(4-fluorobenzyl)-1H-pyrazole-4-carboxamide]",0.1 to 1
2,"Cc1ccccc1Cn1cc(C(=O)NCc2c(C)cc3c(N)nccc3c2C)cn1 [Example 40, N-((1-amino-5,7-dimethylisoquinolin-6-yl)methyl)-1-(2-methylbenzyl)-1H-pyrazole-4-carboxamide]",0.1 to 1
3,"Cc1cc2c(N)nccc2c(C)c1CNC(=O)c1cnn(Cc2ccc(CC(=O)N(C)C3CC3)cc2)c1 [Example 224, N-((1-amino-5,7-dimethylisoquinolin-6-yl)methyl)-1-(4-(2-(cyclopropyl(methyl)amino)-2-oxoethyl)benzyl)-1H-pyrazole-4-carboxamide]",< 0.001
4,"Cc1cc2c(N)nccc2c(C)c1CNC(=O)c1nnc(Cc2cn3cc(C4CC4)ccc3n2)o1 [Example 190, N-((1-amino-5,7-dimethylisoquinolin-6-yl)methyl)-5-((6-cyclopropylimidazo[1,2-a]pyridin-2-yl)methyl)-1,3,4-oxadiazole-2-carboxamide]",< 0.001
5,"Cc1ccc2nc(Cn3cc(C(=O)NCc4c(C)cc5c(NC(=O)OCC(C)C)nccc5c4C)cn3)cn2c1 [Example 5, isobutyl (5,7-dimethyl-6-((1-((6-methylimidazo[1,2-a]pyridin-2-yl)methyl)-1H-pyrazole-4-carboxamido)methyl)isoquinolin-1-yl)carbamate]",0.01 to 0.1
6,"Cc1cc2c(N)nccc2c(C)c1CNc1cc(N(C)Cc2ccc3ncccc3c2)ncn1 [Example 308, N^4-((1-amino-5,7-dimethylisoquinolin-6-yl)methyl)-N^6-methyl-N^6-(quinolin-6-ylmethyl)pyrimidine-4,6-diamine]",0.01 to 0.1
7,"Cc1cc2c(N)nccc2c(C)c1CNC(=O)c1cnn(Cc2cc3cc(C(F)(F)F)ccc3s2)c1 [Example 66, N-((1-amino-5,7-dimethylisoquinolin-6-yl)methyl)-1-((5-(trifluoromethyl)benzo[b]thiophen-2-yl)methyl)-1H-pyrazole-4-carboxamide]",0.001 to 0.01
8,"Cc1cc2c(N)nccc2c(C)c1CNC(=O)c1cnn(Cc2cc3cccc(C)c3nc2Cl)c1 [Example 73, N-((1-amino-5,7-dimethylisoquinolin-6-yl)methyl)-1-((2-chloro-8-methylquinolin-3-yl)methyl)-1H-pyrazole-4-carboxamide]",0.001 to 0.01
9,"Cc1cc2c(N)nccc2c(C)c1CNC(=O)c1cnn(Cc2ccc3cc(Br)ccc3n2)c1 [Example 69, N-((1-amino-5,7-dimethylisoquinolin-6-yl)methyl)-1-((6-bromoquinolin-2-yl)methyl)-1H-pyrazole-4-carboxamide]",0.001 to 0.01
10,"Cc1cc2c(N)nccc2c(C)c1CNc1cc(NCc2ccc(Cn3cccn3)cc2C(F)(F)F)ncn1 [Example 380, N^4-(4-((1H-pyrazol-1-yl)methyl)-2-(trifluoromethyl)benzyl)-N^6-((1-amino-5,7-dimethylisoquinolin-6-yl)methyl)pyrimidine-4,6-diamine]",0.001 to 0.01
11,"Cc1cc2c(N)nccc2c(C)c1CNc1nccn2cc(Cc3ccc4ccccc4c3)nc12 [Example 525, 5,7-dimethyl-6-(((2-(naphthalen-2-ylmethyl)imidazo[1,2-a]pyrazin-8-yl)amino)methyl)isoquinolin-1-amine]",0.1 to 1
12,"Cc1cc2c(N)nccc2c(C)c1CNc1ncccc1NCc1cn2cc(C3CC3)ccc2n1 [Example 506, N^2-((1-amino-5,7-dimethylisoquinolin-6-yl)methyl)-N^3-((6-cyclopropylimidazo[1,2-a]pyridin-2-yl)methyl)pyridine-2,3-diamine]",0.01 to 0.1
13,"Cc1cc2c(N)nccc2c(C)c1CNC(=O)c1cnn(Cc2ccc(CC(=O)N(C)C)c(C(F)(F)F)c2)c1 [Example 152, N-((1-amino-5,7-dimethylisoquinolin-6-yl)methyl)-1-(4-(2-(dimethylamino)-2-oxoethyl)-3-(trifluoromethyl)benzyl)-1H-pyrazole-4-carboxamide]",< 0.001
